From US5395838A, “6-substituted quinazolines processing anti-tumor activity” (Imperial Chemical Industries PLC, priority 1988, dated 1995)
Like-named read-outs stand apart in the source and are kept apart here.

Tests used:
[1] = system: human breast, ovarian and liver cancer; conditions: clinical trials; cited from earlier work
[2] = particularly in relation to the liver and kidney; cited from earlier work
L1210 = assay: Test (b): inhibition of the growth of the leukaemia cell line L1210 in cell culture; type: cell-based; conditions: Mus musculus, read-out: IC50 against the L1210 cell line [Test (b)]
Text: (b) An assay which determines the ability of a test compound to inhibit the growth of the leukaemia cell line L1210 in cell culture. The test is similar to that described in UK Patent Specification No. 2065653B;

thymidylate synthase = biological target: T1, thymidylate synthase (Mus musculus, UniProt P07607); assay: Test (a): in vitro inhibition of the enzyme thymidylate synthase (partially purified from L1210 mouse leukaemia cells); type: biochemical
T1 construct: obtained in partially purified form from L1210 mouse leukaemia cells; endogenous in cells; host or cells: L1210 mouse leukaemia cells (enzyme partially purified)
Text: (a) An in vitro assay which determines the ability of a test compound to inhibit the enzyme thymidylate synthase.

T1 sequence (P07607 whole entry): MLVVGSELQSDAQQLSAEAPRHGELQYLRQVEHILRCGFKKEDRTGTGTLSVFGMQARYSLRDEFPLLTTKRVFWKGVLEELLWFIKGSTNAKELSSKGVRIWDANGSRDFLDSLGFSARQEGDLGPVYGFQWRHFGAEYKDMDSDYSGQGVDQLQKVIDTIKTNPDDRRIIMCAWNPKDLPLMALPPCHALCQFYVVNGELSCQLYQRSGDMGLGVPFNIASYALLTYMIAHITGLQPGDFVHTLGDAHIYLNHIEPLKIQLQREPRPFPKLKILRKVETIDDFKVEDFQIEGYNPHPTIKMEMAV

Row | IC50 (thymidylate synthase; enzyme from L1210 mouse leukaemia cells, read-out: IC50 against thymidylate synthase [Test (a)]) | Compound | activity against human breast, ovarian and liver cancer [1] | symptoms of toxicity in humans [2] | IC50 (L1210) | IC50 (thymidylate synthase)
1 | – | C#CCN(Cc1ccc2nc(N)[nH]c(=O)c2c1)c1ccc(C(=O)N[C@@H](CCC(=O)O)C(=O)O)cc1 [CB3717] | promising activity against human breast, ovarian and liver cancer | shows symptoms of toxicity in humans, particularly in relation to the liver and kidney | – | –
2 | 0.5 µM | C#CCN(Cc1ccc2nc(C)nc(O)c2c1)c1ccc(C(=O)NCc2ccccn2)cc1 [p-[N-(3,4-dihydro-2-methyl-4-oxoquinazolin-6-ylmethyl)-N-(prop-2-ynyl)amino]-N-(2-pyridylmethyl)benzamide] | – | – | 3.9 µM | –
3 | – | C#CCN(Cc1ccc2nc(C)[nH]c(=O)c2c1)c1ccc(C(=O)NCc2ccccc2[N+](=O)[O-])cc1 [p-[N-(3,4-dihydro-2-methyl-4-oxoquinazolin-6-ylmethyl)-N-(prop-2-ynyl)amino]-N-(2-nitrobenzyl)benzamide] | – | – | 1.8 µM | 0.05 µM
